Test results from ChEMBL document CHEMBL1201862, “PubChem BioAssay data set” (2004).
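96-well plates; 48 h exposure; 5 concentrations. Endpoints by linear interpolation between flanking doses. Not reached: highest tested concentration assigned. GI50: concentration for 50% inhibition of growth.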 Active and inactive are the calls of the source. Rule as the data show it: active = GI50 up to about 1.1 µM and inactive = higher.

Columns and labels:
Test in all cases: NCI-60 cell line screen, 48 h
M14 = tested on: M14
NCI/ADR-RES = tested on: NCI/ADR-RES
LOX IMVI = tested on: LOX IMVI
MCF7 = tested on: MCF7
OVCAR-8 = tested on: OVCAR-8
NCI-H460 = tested on: NCI-H460
SNB-75 = tested on: SNB-75
786-0 = tested on: 786-0
HL-60 = tested on: HL-60
CAKI-1 = tested on: CAKI-1
HCT-15 = tested on: HCT-15
IGROV-1 = tested on: IGROV-1
UACC-257 = tested on: UACC-257
A549 = tested on: A549
EKVX = tested on: EKVX
SK-OV-3 = tested on: SK-OV-3
MDA-MB-231 = tested on: MDA-MB-231
SR = tested on: SR
UACC-62 = tested on: UACC-62
CCRF-CEM = tested on: CCRF-CEM

Structure (SMILES)	GI50 (M14)	GI50 (NCI/ADR-RES)	GI50 (LOX IMVI)	GI50 (MCF7)	GI50 (OVCAR-8)	GI50 (NCI-H460)	GI50 (SNB-75)	GI50 (786-0)	GI50 (HL-60)	GI50 (CAKI-1)	GI50 (HCT-15)	GI50 (IGROV-1)	GI50 (UACC-257)	GI50 (A549)	GI50 (EKVX)	GI50 (SK-OV-3)	GI50 (MDA-MB-231)	GI50 (SR)	GI50 (UACC-62)	GI50 (CCRF-CEM)
CC1(C)CC(=O)C(=CNc2nc(-c3ccc(Br)cc3)cs2)C(=O)C1	20.5 µM (inactive)	37.8 µM (inactive)	20.9 µM (inactive)	32.6 µM (inactive)	51.1 µM (inactive)	31.1 µM (inactive)	6.35 µM (inactive)	25.5 µM (inactive)	27.7 µM (inactive)	24.9 µM (inactive)	21.2 µM	29.6 µM (inactive)	18.5 µM (inactive)	51.4 µM (inactive)	38.7 µM (inactive)	83 µM (inactive)	31.8 µM (inactive)			
C[N+](C)(C)CCc1ccccc1	> 100 µM (inactive)		> 100 µM (inactive)		> 100 µM (inactive)	> 100 µM (inactive)	> 100 µM (inactive)	> 100 µM (inactive)	> 100 µM (inactive)	> 100 µM (inactive)	> 100 µM	> 100 µM (inactive)	> 100 µM (inactive)	> 100 µM (inactive)	> 100 µM (inactive)	> 100 µM (inactive)		> 100 µM (inactive)	> 100 µM (inactive)	> 100 µM (inactive)
COc1cccc2c1C(=O)C=CC2=O	8.49 µM (inactive)			1.93 µM (inactive)	3.58 µM (inactive)	15.6 µM (inactive)	14.8 µM (inactive)	11.5 µM (inactive)	0.32 µM (active)	7.66 µM (inactive)	7.85 µM	12.2 µM (inactive)	15.5 µM (inactive)	20 µM (inactive)	18.5 µM (inactive)	21.8 µM (inactive)	2.15 µM (inactive)	0.269 µM (active)	10.9 µM (inactive)	0.281 µM (active)
CCN(CC)CCC(=O)N1CCc2c([nH]c3ccccc23)C1c1cccnc1 (configuration not stated)	> 100 µM (inactive)		> 100 µM (inactive)		> 100 µM (inactive)	> 100 µM (inactive)	> 100 µM (inactive)	> 100 µM (inactive)	> 100 µM (inactive)	> 100 µM (inactive)	> 100 µM	> 100 µM (inactive)	> 100 µM (inactive)	> 100 µM (inactive)	> 100 µM (inactive)	> 100 µM (inactive)		> 100 µM (inactive)	> 100 µM (inactive)	> 100 µM (inactive)
CC[C@]1(O)C(=O)OCc2c1cc1n(c2=O)Cc2cc3c(N)cccc3nc2-1	> 100 µM (inactive)		> 100 µM (inactive)		> 100 µM (inactive)	> 100 µM (inactive)	20.5 µM (inactive)	> 100 µM (inactive)	> 100 µM (inactive)	> 100 µM (inactive)	> 100 µM	> 100 µM (inactive)	> 100 µM (inactive)	> 100 µM (inactive)	> 100 µM (inactive)	> 100 µM (inactive)		> 100 µM (inactive)	> 100 µM (inactive)	> 100 µM (inactive)
CC(=O)N1N(c2ccc([N+](=O)[O-])cc2)C(=O)C1(C)C	10.8 µM (inactive)	30.8 µM (inactive)	11.6 µM (inactive)	23.6 µM (inactive)	23.2 µM (inactive)	29.4 µM (inactive)	18.7 µM (inactive)	18.1 µM (inactive)			15.7 µM	20.6 µM (inactive)		> 10 µM (inactive)	17.3 µM (inactive)	48 µM (inactive)	20.1 µM (inactive)		18.5 µM (inactive)	7.08 µM (inactive)
COc1ccc(O)c(/C=N\Nc2ccccc2)c1	19 µM (inactive)	18.6 µM (inactive)	2.44 µM (inactive)	14.8 µM (inactive)	22.1 µM (inactive)	4.79 µM (inactive)	49.9 µM (inactive)	32.3 µM (inactive)	3.17 µM (inactive)		8.65 µM		16.7 µM (inactive)	6.22 µM (inactive)	39.7 µM (inactive)	> 100 µM (inactive)	7.03 µM (inactive)		2.6 µM (inactive)	
CC1=C2CN(C(=O)OCC(C)C)CCC2C2=C(C(=O)c3ccccc3C2=O)C1C (configuration not stated)	> 10 µM (inactive)		> 10 µM (inactive)	> 10 µM (inactive)	> 10 µM (inactive)		> 10 µM (inactive)	> 10 µM (inactive)	> 10 µM (inactive)	> 10 µM (inactive)	> 10 µM	> 10 µM (inactive)	> 10 µM (inactive)	> 10 µM (inactive)	> 10 µM (inactive)	> 10 µM (inactive)	> 10 µM (inactive)	> 10 µM (inactive)	> 10 µM (inactive)	> 10 µM (inactive)
O=C(/C=C/c1ccc(Cl)c(Cl)c1)c1ccc2ccccc2c1	> 100 µM (inactive)		> 100 µM (inactive)		> 100 µM (inactive)	37.7 µM (inactive)	52 µM (inactive)	> 100 µM (inactive)	32.7 µM (inactive)	> 100 µM (inactive)	> 100 µM	> 100 µM (inactive)	> 100 µM (inactive)	> 100 µM (inactive)	> 100 µM (inactive)	> 100 µM (inactive)		47.9 µM (inactive)	> 100 µM (inactive)	> 100 µM (inactive)
COC(=O)C1(C(=O)OC)CC2=C(S(=O)(=O)c3ccccc3)C[C@H](S(=O)(=O)c3ccccc3)[C@H]2C1	> 100 µM (inactive)	> 100 µM (inactive)	> 100 µM (inactive)		> 100 µM (inactive)	39.6 µM (inactive)	37.8 µM (inactive)	> 100 µM (inactive)		> 100 µM (inactive)	35.3 µM	19.9 µM (inactive)	> 100 µM (inactive)	> 100 µM (inactive)	> 100 µM (inactive)	> 100 µM (inactive)	27.4 µM (inactive)		23.3 µM (inactive)	> 100 µM (inactive)
Cc1ccc2c(=O)c(-c3nnc(NC4CCCCC4)s3)c[nH]c2n1	> 100 µM (inactive)	> 100 µM (inactive)	> 100 µM (inactive)	> 100 µM (inactive)	> 100 µM (inactive)	> 100 µM (inactive)		> 100 µM (inactive)	> 100 µM (inactive)	> 100 µM (inactive)	> 100 µM	> 100 µM (inactive)	> 100 µM (inactive)	> 100 µM (inactive)	> 100 µM (inactive)		> 100 µM (inactive)		> 100 µM (inactive)	> 100 µM (inactive)
Cc1ccc(-c2sc(-c3ccc(C)cc3)c3c2C2CCC3C2)cc1	> 50 µM (inactive)	> 50 µM (inactive)	> 50 µM (inactive)		> 50 µM (inactive)	> 50 µM (inactive)		> 50 µM (inactive)	> 50 µM (inactive)	> 50 µM (inactive)	> 50 µM	> 50 µM (inactive)	> 50 µM (inactive)	> 50 µM (inactive)	> 50 µM (inactive)	> 50 µM (inactive)	> 50 µM (inactive)	> 50 µM (inactive)	> 50 µM (inactive)	> 50 µM (inactive)
COc1c(-c2ccccc2)oc2c(CP(=O)(OC)OC)cccc2c1=O	> 100 µM (inactive)			> 100 µM (inactive)				> 100 µM (inactive)		2.12 µM (inactive)		> 100 µM (inactive)	> 100 µM (inactive)	> 100 µM (inactive)	> 100 µM (inactive)	> 100 µM (inactive)	> 100 µM (inactive)	> 100 µM (inactive)	> 100 µM (inactive)	94.4 µM (inactive)
CC1CC(N)=Nc2ccccc2N1Cc1ccccc1 (configuration not stated)	15.6 µM (inactive)	15.1 µM (inactive)			14.6 µM (inactive)	13.9 µM (inactive)	6.89 µM (inactive)	29.4 µM (inactive)	3.96 µM (inactive)	12.2 µM (inactive)	15.8 µM	7.6 µM (inactive)	12.9 µM (inactive)	17.4 µM (inactive)	22.1 µM (inactive)	13.2 µM (inactive)	14.4 µM (inactive)		14.2 µM (inactive)	12.4 µM (inactive)
Cc1ccc(C(=O)O/N=C2/CCCC/C2=C\c2ccccc2)cc1	> 100 µM (inactive)		20.1 µM (inactive)		37.2 µM (inactive)	> 100 µM (inactive)	33.5 µM (inactive)	> 100 µM (inactive)	19.7 µM (inactive)	63.2 µM (inactive)	32.4 µM	42.9 µM (inactive)	> 100 µM (inactive)	19.5 µM (inactive)	> 100 µM (inactive)	> 100 µM (inactive)		> 100 µM (inactive)	41.5 µM (inactive)	29.2 µM (inactive)
Brc1cccc(C2ON=C(c3ccccc3)N2C23CC4CC(CC(C4)C2)C3)c1 (configuration not stated)	> 10 µM (inactive)	> 10 µM (inactive)	> 10 µM (inactive)	> 10 µM (inactive)	> 10 µM (inactive)	> 10 µM (inactive)	6.19 µM (inactive)	> 10 µM (inactive)		> 10 µM (inactive)	> 10 µM	> 10 µM (inactive)	> 10 µM (inactive)	> 10 µM (inactive)	> 10 µM (inactive)	> 10 µM (inactive)	> 10 µM (inactive)		> 10 µM (inactive)	> 10 µM (inactive)
O=c1[nH]nc(Cc2ccc([N+](=O)[O-])cc2)n1CCO	> 100 µM (inactive)	> 100 µM (inactive)	> 100 µM (inactive)	> 100 µM (inactive)	> 100 µM (inactive)	> 100 µM (inactive)		> 100 µM (inactive)	> 100 µM (inactive)	> 100 µM (inactive)	> 100 µM	> 100 µM (inactive)	> 100 µM (inactive)	> 100 µM (inactive)	> 100 µM (inactive)	> 100 µM (inactive)	> 100 µM (inactive)		> 100 µM (inactive)	
